pIC50: −log10 of the molar value.

The target in the assay is Urease (Canavalia ensiformis, UniProt P07374). The assay is described as follows: Urease Inhibition Assay. To be noted: pH 6.8; 30 °C. The protocol: Mixture of 25 μL of urease enzyme (Jack bean) solution containing 1 unit of enzyme (1 unit = 0.02 mg of enzyme) was dissolved in phosphate buffer of pH 6.8, 55 μL of buffer containing 100 mM urea, and 5 μL of test compounds (0.5 mM concentration) was incubated at 30°C for 15 min in 96-well plates. Urease activity was determined by measuring ammonia production using the iodophenol method38. Briefly, 45 μL each of phenol reagent and 70 μL of alkali reagent were added to each well. The increase in absorbance at 630 nm was measured after 50 min, using a microplate reader (Molecular Device, CA, USA). All reactions were performed in triplicate in a final volume of 200 μL. The results (change in absorbance per min) were processed using Soft-Max Pro software (Molecular Device, CA, USA).
Chain of Urease (P07374 whole entry): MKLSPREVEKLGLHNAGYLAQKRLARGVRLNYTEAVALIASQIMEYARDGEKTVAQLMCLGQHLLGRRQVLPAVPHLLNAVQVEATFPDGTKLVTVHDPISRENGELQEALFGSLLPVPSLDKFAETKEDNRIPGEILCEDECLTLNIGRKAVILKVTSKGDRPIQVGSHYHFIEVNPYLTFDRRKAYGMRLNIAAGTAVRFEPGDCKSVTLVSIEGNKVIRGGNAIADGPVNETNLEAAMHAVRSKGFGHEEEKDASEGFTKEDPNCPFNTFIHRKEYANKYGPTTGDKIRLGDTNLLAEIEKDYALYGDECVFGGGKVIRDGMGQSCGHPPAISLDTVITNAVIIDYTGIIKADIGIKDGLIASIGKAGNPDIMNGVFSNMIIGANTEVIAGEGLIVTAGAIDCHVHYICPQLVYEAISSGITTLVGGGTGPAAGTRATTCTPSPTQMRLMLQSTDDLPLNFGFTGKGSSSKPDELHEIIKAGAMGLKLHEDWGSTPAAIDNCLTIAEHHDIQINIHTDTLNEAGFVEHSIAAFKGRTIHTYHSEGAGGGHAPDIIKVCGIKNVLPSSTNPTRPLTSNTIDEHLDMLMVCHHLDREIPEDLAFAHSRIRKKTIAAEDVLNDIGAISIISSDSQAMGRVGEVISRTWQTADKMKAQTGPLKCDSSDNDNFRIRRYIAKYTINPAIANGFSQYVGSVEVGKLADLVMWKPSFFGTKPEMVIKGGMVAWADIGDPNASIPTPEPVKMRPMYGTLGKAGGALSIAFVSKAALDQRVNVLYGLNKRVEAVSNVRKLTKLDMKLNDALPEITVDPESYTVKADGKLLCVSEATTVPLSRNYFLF
In general, pIC50 refers to the negative decadic logarithm of the IC50, by convention in mol/L. A low value points to a large IC50. In the case of `Cn1c2ccccc2c2cc(-c3cc(-c4ccc(Cl)cc4Cl)nc(N)n3)ccc21` [4-(2,4-Dichlorophenyl)-6-(9-methyl-9H-carbazol-3-yl)-pyrimidin-2-amine (5i)], the pIC50 was 4.71.
Molecule `Cn1c2ccccc2c2cc(-c3cc(-c4ccc(F)cc4F)nc(N)n3)ccc21` [4-(2,4-Difluorophenyl)-6-(9-methyl-9H-carbazol-3-yl)-pyrimidin-2-amine (5f)] showed a pIC50 of 4.40.
Consider `Cn1c2ccccc2c2cc(-c3cc(-c4cc(Cl)ccc4Cl)nc(N)n3)ccc21` [4-(2,5-Dichlorophenyl)-6-(9-methyl-9H-carbazol-3-yl)-pyrimidin-2-amine (5k)], for which the pIC50 is 4.55.
The figure for `Cn1c2ccccc2c2cc(-c3cc(-c4ccc(Cl)c(Cl)c4)nc(N)n3)ccc21` [4-(3,4-Dichlorophenyl)-6-(9-methyl-9H-carbazol-3-yl)-pyrimidin-2-amine (5j)] is 4.63; for `Cn1c2ccccc2c2cc(-c3cc(-c4ccc(F)c(F)c4)nc(N)n3)ccc21` [4-(3,4-Difluorophenyl)-6-(9-methyl-9H-carbazol-3-yl)-pyrimidin-2-amine (5g)] it is 4.34.
For `COc1ccc(-c2cc(-c3ccc4c(c3)c3ccccc3n4C)nc(N)n2)cc1OC` [4-(3,4-Dimethoxyphenyl)-6-(9-methyl-9H-carbazol-3-yl)-pyrimidin-2-amine (5c)], the pIC50 was 4.51.
`Cn1c2ccccc2c2cc(-c3cc(-c4cccc(N)c4)nc(N)n3)ccc21` [4-(3-Aminophenyl)-6-(9-methyl-9H-carbazol-3-yl)-pyrimidin-2-amine (5p)] gave a pIC50 of 4.08.
`Cn1c2ccccc2c2cc(-c3cc(-c4ccc(Br)cc4)nc(N)n3)ccc21` [4-(4-Bromophenyl)-6-(9-methyl-9H-carbazol-3-yl)-pyrimidin-2-amine (5l)] had a pIC50 of 4.02.
With `Cn1c2ccccc2c2cc(-c3cc(-c4ccc(Cl)cc4)nc(N)n3)ccc21` [4-(4-Chlorophenyl)-6-(9-methyl-9H-carbazol-3-yl)-pyrimidin-2-amine (5h)], the pIC50 is under 4.00.
The figure for `Cn1c2ccccc2c2cc(-c3cc(-c4ccc(F)cc4)nc(N)n3)ccc21` [4-(4-Fluorophenyl)-6-(9-methyl-9H-carbazol-3-yl)-pyrimidin-2-amine (5e)] is under 4.00; for `COc1ccc(-c2cc(-c3ccc4c(c3)c3ccccc3n4C)nc(N)n2)cc1` [4-(4-Methoxyphenyl)-6-(9-methyl-9H-carbazol-3-yl)-pyrimidin-2-amine (5b)] it is 4.02.
With `COc1cc(OC)c(-c2cc(-c3ccc4c(c3)c3ccccc3n4C)nc(N)n2)c(OC)c1` [4-(9-Methyl-9H-carbazol-3-yl)-6-(2,4,6-trimethoxyphenyl)-pyrimidin-2-amine (5d)] the figure was 4.13; with `Cn1c2ccccc2c2cc(-c3cc(-c4ccc([N+](=O)[O-])cc4)nc(N)n3)ccc21` [4-(9-Methyl-9H-carbazol-3-yl)-6-(4-nitrophenyl)-pyrimidin-2-amine (5m)], 4.06; with `Cn1c2ccccc2c2cc(-c3cc(-c4ccccn4)nc(N)n3)ccc21` [4-(9-Methyl-9H-carbazol-3-yl)-6-(pyridin-2-yl)-pyrimidin-2-amine (5o)], under 4.00.
For `Cn1c2ccccc2c2cc(-c3cc(-c4cccs4)nc(N)n3)ccc21` [4-(9-Methyl-9H-carbazol-3-yl)-6-(thiophen-2-yl)-pyrimidin-2-amine (5n)], the pIC50 was under 4.00.
On to `Cn1c2ccccc2c2cc(-c3cc(-c4ccccc4)nc(N)n3)ccc21` [4-(9-Methyl-9H-carbazol-3-yl)-6-phenylpyrimidin-2-amine (5a)], for which the pIC50 is under 4.00.
